Entries after “also recorded” stand apart in the source; their conditions may differ.
Experiments:
PNPase = PNPase (Homo sapiens, UniProt P00491); conditions: Jackson et al., J Am Heart Assoc 2018; cited from earlier work
CYP-treated rats = assay: Laser Doppler bladder blood flow in CYP cystitis model; assay type: in vivo, rat; conditions: CYP (75 mg/kg i.p.) female Sprague Dawley rats; oral 8-AG 5 mg/kg/day starting one week prior to CYP
Experimental: Animals: Female Sprague Dawley rats were employed in this example (Charles River; Wilmington, Mass.). Three groups of animals were included. Group 1 received an i.p. injection of saline and was used as a control; groups 2 and 3 received an i.p. injection of cyclophosphamide (CYP, SIGMA-ALDRICH®, St Louis, Mo., day 0, 3, 6, sacrifice day 8, 75 mg/kg, i.p.) with group 3 treated with oral 8-AG (5 mg/kg/day; starting one week prior to CYP). CYP induced bladder inflammation and is a well-established pre-clinical model for BPS/IC.
Blood Flow Changes: Real-time bladder blood perfusion (1 mm^3 tissue) was accomplished using a BLF22D laser Doppler flowmeter (Transonic Systems, Inc) with a surface probe (TypeS-APLPHS) applied to the serosal surface of the bladder (apex and neck) wall using Doppler light shift from moving RBCs to analyze flow by the Bonner algorithm. This method gives robust, non-invasive microvascular flow signals in the bladder wall of anesthetized rats.

hydroxyproline = assay: Hydroxyproline in detrusor smooth muscle (indicator of fibrosis); assay type: in vivo, rat; conditions: aged rats; oral 8-AG 5 mg/kg/day, 6 weeks
bladder vasculature = assay: Ribbon-scanning confocal microscopy of bladder vasculature perfused with fluorescent beads; assay type: in vivo, rat; conditions: aged rats
Description: Bladders that had been perfused transcardially with PBS and containing 20 nm yellow-green fluorescent beads (THERMO FISHER™, F8787) to highlight the vasculature were fixed then cleared rapidly by removing lipids and dissolving light-absorbing chromophores within the tissue. Clearing the tissue increased the maximum depth of confocal imaging to many millimeters. At this stage, tissue was directly imaged for the presence of genetically expressed reporter proteins or underwent staining using immunohistochemistry (IHC) or molecular dyes. Using this method, images were acquired through bladders (and other tissues) that are 5000 micrometers thick. Volumetric data are acquired using the Caliber ID RS-G4 ribbon scanning confocal microscope, which acquired large-area images 20-40 times faster than other commercially available systems with a high nA (1.0) long working distance (8 mm) low magnification (20×) by NIKON™ Inc (Tokyo, Japan). Quantitative changes in vascular structures were compared with the volume and surface area of each bladder and of the various tissue subtypes using these methods (UT; suburothelium; mesenchyme). These methods afforded the advantage of interrogating whole tissues in a three-dimensional environment and in combination with IHC without the need to section.
Vascular Changes: Bladders that had been perfused transcardially with PBS buffer containing 20 nm yellow-green fluorescent beads (THERMO FISHER®, F8787) to highlight the vasculature were fixed then cleared by removing lipids and dissolving light-absorbing chromophores within the tissue. Volumetric data were acquired using a Caliber ID RS-G4 ribbon scanning confocal microscope (NIKON® Inc, Tokyo, Japan), which can acquire large-area images (uses a high nA (1.0) long working distance (8 mm) with low magnification (20×)). This affords the advantage of interrogating whole tissues in a three-dimensional environment without the need to section. Real-time blood perfusion (1 mm3 tissue) was accomplished using a BLF22D laser Doppler flowmeter (Transonic Systems, Inc) with a surface probe (TypeS-APLPHS) applied to the serosal surface of the bladder (apex and neck) wall using Doppler light shift from moving RBCs to analyze flow by the Bonner algorithm. This method gives robust, non-invasive microvascular flow signals in the bladder wall of anesthetized rats.

nitrotyrosine = assay: Western immunoblotting, nitrotyrosine; assay type: in vivo, rat; conditions: aged rats; oral 8-AG 5 mg/kg/day, 6 weeks
Experimental: Western immunoblotting: One half of each bladder preparation was homogenized using Lysing Matrix D in a FastPrep 24 instrument (MP Biomedicals, Solon, Ohio) in HBSS (5 mM KCl, 0.3 mM KH2PO4, 138 mM NaCl, 4 mM NaHO3, 0.3 mM Na2HCO3, 0.3 mM Na2HPO4, 5.6 mM glucose and 10 mM Hepes, pH 7.4) containing complete protease inhibitor cocktail (1 tablet/10 ml, ROCHE®, Indianapolis, Ind.)) and phosphatase inhibitor cocktail (SIGMA®, 1:100). After centrifugation (13000 rpm; 15 min at 4° C.), the membrane protein fraction was prepared by suspending the membrane pellets in lysis buffer containing 0.3 M NaCl, 50 mM Tris-HCl (pH 7.6) and 0.5% Triton X-100 and the same concentration of protease inhibitors as above. The suspensions were incubated on ice and centrifuged (13000 rpm; 15 min at 4° C.). The protein concentrations of the combined supernatants were determined using the PIERCE® BCA protein assay (THERMO SCIENTIFIC®, Rockford, Ill.). […] As a loading control, total protein per sample was determined using Bio-Rad® Stain Free SDS-PAGE gel technology. UV-activated protein fluorescence was imaged on a CHEMIDOC® MP (BIO-RAD®). […] The volume (intensity) of each protein species was determined and normalized to total protein using Image Lab software (BIO-RAD®).

[1] = chronic 8-AG treatment (Examples 1-2)

Chain of PNPase (P00491 whole entry): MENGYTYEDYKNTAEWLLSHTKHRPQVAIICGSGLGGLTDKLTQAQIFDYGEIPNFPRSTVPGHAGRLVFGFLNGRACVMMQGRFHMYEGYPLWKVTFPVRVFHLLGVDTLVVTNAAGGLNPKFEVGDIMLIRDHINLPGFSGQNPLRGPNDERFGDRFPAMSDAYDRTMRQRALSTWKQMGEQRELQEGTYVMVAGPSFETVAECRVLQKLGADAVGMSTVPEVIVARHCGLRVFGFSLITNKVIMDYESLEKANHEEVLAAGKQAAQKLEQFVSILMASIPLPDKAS

SMILES: Nc1nc2[nH]c(N)nc2c(=O)[nH]1 [8-AG, 8-Aminoguanine]
- PNPase inhibition (mechanism of diuresis, natriuresis, glucosuria) (PNPase): inhibiting
- bladder blood flow (CYP-induced hyperemia) (CYP-treated rats): abolished; also recorded: reversed to a control state
- hydroxyproline in detrusor smooth muscle (hydroxyproline): levels similar to the younger state; also recorded: restored these biomarkers to that of a younger state
- ischemic appearance of bladder tissue (bladder vasculature; [1]): no longer appeared ischemic
- tortuosity of bladder vessels (bladder vasculature; [1]): restored to a younger state; also recorded: reduced the number of tortuous vessels
- ischemic appearance of bladder tissue (bladder vasculature; oral 8-AG 5 mg/kg/day, 6 weeks): no longer appeared ischemic
- vascular tortuosity / tortuous vessels in bladder (bladder vasculature; oral 8-AG 5 mg/kg/day, 6 weeks): reduced the number of tortuous vessels; also recorded: restored to a younger state
- urethral nitrotyrosine (nitrotyrosine): normalized to a younger state

Source: patent US20220054494A1, “METHODS FOR TREATING BLADDER AND URETHRA DYSFUNCTION AND DISEASE” (University of Pittsburgh - Of the Commonwealth System of …, priority 2019, published 2022)
